Source: PMC4731831, “Better than Nature: Nicotinamide Biomimetics That Outperform Natural Coenzymes” (Journal of the American Chemical Society, 2016)

Target: T1, TsOYE (Thermus scotoductus, UniProt B0JDW3)
T1 construct: gene chrR; overexpressed ene reductase with FMN; construct only in supplement
Assay: anaerobic stopped-flow flavin reduction
Assay type: biochemical
Details: apparent; reductive half-reaction; 50 mM MOPS pH 7.0, 5 mM CaCl2, 30 °C
Source text: anaerobic stopped-flow flavin reduction on TsOYE

Row | Kd [µM] | Structure (SMILES)
1 | 8 ± 0.7 | NC(=O)C1=CN([C@@H]2O[C@H](COP(=O)(O)OP(=O)(O)OC[C@H]3O[C@@H](n4cnc5c(N)ncnc54)[C@H](O)[C@@H]3O)[C@@H](O)[C@H]2O)C=CC1 [NADH]
2 | 227 ± 5 | NC(=O)C1=CN(Cc2ccccc2)C=CC1 [compound 1, biomimetic 1]
3 | 406 ± 12 | CCCCN1C=CCC(C(N)=O)=C1 [compound 2, biomimetic 2]
4 | 9 ± 0.6 | NC(=O)C1=CN([C@@H]2O[C@H](COP(=O)(O)OP(=O)(O)OC[C@H]3O[C@@H](n4cnc5c(N)ncnc54)[C@H](OP(=O)(O)O)[C@@H]3O)[C@@H](O)[C@H]2O)C=CC1 [NADPH]
